Assays:
Experiment in all cases: drug sensitivity score (DSS3, normalised partial AUC of % inhibition dose-response) (DSS (score)); higher = more sensitive (stronger inhibition of viability); extreme values may be limits of the assay
[1] = test system: FMOC09 (patient-derived high-grade serous ovarian cancer cells); conditions: 72 h; library: FO5A; assay format: 2D, 384-well, CellTiter-Glo
In short: (§1)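 Cells were dispensed onto 384-well flat clear-bottom plates already holding compounds at five concentrations over a 10,000-fold range, using patient-derived ovarian cancer cells at passage under 10. Incubation lasted 72 h at 37 °C in 5% CO2, after which CellTiter-Glo viability data were processed in Breeze. Higher drug sensitivity scores, each a partial area under the percent-inhibition dose-response curve divided by the log of the upper asymptote, mean more sensitive cells.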

[2] = test system: FMOC17 (patient-derived low-grade serous ovarian cancer cells); conditions: 72 h; library: FO5A; assay format: 2D, 384-well, CellTiter-Glo
In short: as §1

[3] = test system: FMOC03 (patient-derived mucinous ovarian cancer cells); conditions: 72 h; library: FO5A; assay format: 2D, 384-well, CellTiter-Glo
In short: as §1

[4] = test system: FMOC27 (patient-derived low-grade serous ovarian cancer cells); conditions: 72 h; library: FO5A; assay format: 2D, 384-well, CellTiter-Glo
In short: as §1

[5] = test system: FMOC25_1 (patient-derived low-grade serous ovarian cancer cells); conditions: 72 h; library: FO4B; assay format: 2D, 384-well, CellTiter-Glo
In short: as §1

[6] = test system: FMOC24 (patient-derived high-grade serous ovarian cancer cells); conditions: 72 h; library: FO5A; assay format: 2D, 384-well, CellTiter-Glo
In short: as §1

[7] = test system: FMOC04 (patient-derived high-grade serous ovarian cancer cells); conditions: 72 h; library: FO5A; assay format: 2D, 384-well, CellTiter-Glo
In short: as §1

[8] = test system: FMOC02_3 (patient-derived low-grade serous ovarian cancer cells); conditions: 72 h; library: FO5A; assay format: 2D, 384-well, CellTiter-Glo
In short: as §1

[9] = test system: FMOC22 (patient-derived mucinous ovarian cancer cells); conditions: 72 h; library: FO5A; assay format: 2D, 384-well, CellTiter-Glo
In short: as §1

[10] = test system: FMOC02_2 (patient-derived low-grade serous ovarian cancer cells); conditions: 72 h; library: FO5A; assay format: 2D, 384-well, CellTiter-Glo
In short: as §1

[11] = test system: FMOC02_1 (patient-derived low-grade serous ovarian cancer cells); conditions: 72 h; library: FO5A; assay format: 2D, 384-well, CellTiter-Glo
In short: as §1

[12] = test system: FMOC06 (patient-derived mucinous ovarian cancer cells); conditions: 72 h; library: FO5A; assay format: 2D, 384-well, CellTiter-Glo
In short: as §1

[13] = test system: FMOC28 (patient-derived low-grade serous ovarian cancer cells); conditions: 72 h; library: FO5A; assay format: 2D, 384-well, CellTiter-Glo
In short: as §1

[14] = test system: FMOC14 (patient-derived high-grade serous ovarian cancer cells); conditions: 72 h; library: FO5A; assay format: 2D, 384-well, CellTiter-Glo
In short: as §1

[15] = test system: FMOC11 (patient-derived high-grade serous ovarian cancer cells); conditions: 72 h; library: FO5A; assay format: 2D, 384-well, CellTiter-Glo
In short: as §1

[16] = test system: FMOC25_2 (patient-derived low-grade serous ovarian cancer cells); conditions: 72 h; library: FO5A; assay format: 2D, 384-well, CellTiter-Glo
In short: as §1

Row | SMILES | drug sensitivity score [1] | drug sensitivity score [2] | drug sensitivity score [3] | drug sensitivity score [4] | drug sensitivity score [5] | drug sensitivity score [6] | drug sensitivity score [7] | drug sensitivity score [8] | drug sensitivity score [9] | drug sensitivity score [10] | drug sensitivity score [11] | drug sensitivity score [12] | drug sensitivity score [13] | drug sensitivity score [14] | drug sensitivity score [15] | drug sensitivity score [16]
1 | COc1cc2c(N3CCN(C(=O)Nc4ccc(OC(C)C)cc4)CC3)ncnc2cc1OCCCN1CCCCC1 [Tandutinib] | 0 | 0 | 0 | 0 | 0 | 0.75 | 0 | 0 | 0 | 0 | 0 | 0 | 1.4 | 0 | 0 | 0
2 | O[C@H]1CC[C@H](Nc2ncc3nc(Nc4c(F)cc(F)cc4F)n([C@H]4CCOC4)c3n2)CC1 [Tanzisertib] | 0 | 0.8 | 0 | 0.1 | 0 | 1.45 | 0 | 1.1 | 0.1 | 1.6 | 2.3 | 0 | 0 | 0 | 0 | 0
3 | C[C@@H](C(=O)O)c1ccc(-c2ccccc2)c(F)c1 [Tarenflurbil] | 0 | 0 | 0 | 0 | 0 | 1.05 | 0 | 0.3 | 0 | 0 | 0 | 0 | 0 | 0 | 0 | 0
4 | COc1cccc2c1c(O)c(C(=O)N(C)c1ccc(C(F)(F)F)cc1)c(=O)n2C [Tasquinimod] | 0 | 0 | 0 | 0.4 | 3.9 | 2.3 | 0 | 1 | 0 | 0 | 0 | 0 | 0 | 0 | 0 | 2.5
5 | CCN(c1cc(-c2ccc(CN3CCOCC3)cc2)cc(C(=O)NCc2c(C)cc(C)[nH]c2=O)c1C)C1CCOCC1 [Tazemetostat] | 0 | 0 | 0 | 0 | 0 | 0 | 0 | 0.1 | 0 | 0 | 0 | 0.5 | 0 | 0 | 0 | 0
6 | CNC(=O)c1cc(COc2nnc(Nc3ccc(Cl)cc3)c3ccoc23)ccn1 [Telatinib] | 0 | 2.5 | 0 | 0 | 0 | 0.4 | 0.05 | 0 | 0 | 1.7 | 1.2 | 0 | 0 | 0 | 0 | 0
7 | Cn1nnc2c(C(N)=O)ncn2c1=O [Temozolomide] | 0 | 0.2 | 0 | 0 | 0 | 0 | 0 | 0 | 0 | 0 | 0 | 0 | 0.8 | 0 | 0 | 0
8 | COc1cc([C@@H]2c3cc4c(cc3[C@@H](O[C@@H]3O[C@@H]5CO[C@@H](c6cccs6)O[C@H]5[C@H](O)[C@H]3O)[C@H]3COC(=O)[C@H]23)OCO4)cc(OC)c1O [Teniposide] | 0 | 0 | 0.5 | 0 | 6.4 | 2.75 | 0 | 0 | 2.5 | 0 | 0 | 0 | 0 | 0 | 0 | 0
9 | O=C1CCC(N2C(=O)c3ccccc3C2=O)C(=O)N1 (stereo not drawn) [Thalidomide] | 0 | 0 | 0 | 0.1 | 0 | 0 | 0 | 0 | 0 | 0 | 0 | 0 | 0 | 0 | 0 | 0
10 | O=c1sn(-c2cccc3ccccc23)c(=O)n1Cc1ccccc1 [Tideglusib] | 0 | 0 | 0 | 0 | 0.3 | 0 | 0 | 0 | 0 | 1 | 0 | 0 | 0 | 0 | 0 | 0
11 | Cn1cncc1[C@@](N)(c1ccc(Cl)cc1)c1ccc2c(c1)c(-c1cccc(Cl)c1)cc(=O)n2C [Tipifarnib] | 2.2 | 1.8 | 6 | 3.3 | 9.7 | 4.1 | 4.45 | 9.5 | 5.3 | 6.2 | 6.9 | 8.8 | 5.8 | 3.5 | 5.3 | 9.8
12 | O=C1NC(=O)[C@@H](c2cn3c4c(cccc24)CCC3)[C@@H]1c1c[nH]c2ccccc12 [Tivantinib] | 4.3 | 4.9 | 3.1 | 2.5 | 4.2 | 0.65 | 5.1 | 5 | 2.5 | 3.7 | 4.7 | 2.7 | 3.3 | 0 | 2.8 | 2.1
13 | COc1cc2nccc(Oc3ccc(NC(=O)Nc4cc(C)on4)c(Cl)c3)c2cc1OC [Tivozanib] | 0.4 | 2.8 | 2.2 | 1.5 | 1.9 | 0.9 | 0.3 | 3.3 | 1.2 | 3 | 5 | 2.3 | 0.5 | 0.5 | 1.9 | 3.2
14 | C[C@@H]1CCN(C(=O)CC#N)C[C@@H]1N(C)c1ncnc2[nH]ccc12 [Tofacitinib] | 0 | 0 | 0 | 0 | 0 | 0.5 | 0 | 0.1 | 0 | 0.7 | 0 | 0.7 | 0.7 | 0 | 0 | 0.3
15 | CN(C)CCOc1ccc(/C(=C(/CCCl)c2ccccc2)c2ccccc2)cc1 [Toremifene] | 3.8 | 3.3 | 5.3 | 1.9 | 2.2 | 7 | 4 | 7.1 | 5.3 | 5.3 | 6 | 7.4 | 2.4 | 5.2 | 4.3 | 2.2
16 | CC1=C(/C=C/C(C)=C/C=C/C(C)=C/C(=O)O)C(C)(C)CCC1 [Tretinoin] | 0 | 0 | 0 | 0 | 0 | 0 | 0 | 5.2 | 0 | 0 | 0 | 0.1 | 0 | 0 | 2 | 0.2
17 | NC(=S)N/N=C/c1ncccc1N [Triapine] | 0.9 | 2.2 | 2.4 | 2.3 | 3.2 | 1.15 | 0 | 1.7 | 2.4 | 3.5 | 4.2 | 1.8 | 5.1 | 0 | 1.7 | 6
18 | O=C(CCCCCCC(=O)Nc1ccc([C@H]2O[C@@H](CSc3nc(-c4ccccc4)c(-c4ccccc4)o3)C[C@@H](c3ccc(CO)cc3)O2)cc1)NO [Tubacin] | 0 | 0 | 4.6 | 0.4 | 0 | 0.25 | 0 | 0.4 | 5.4 | 0.3 | 0 | 4.1 | 0.4 | 2.9 | 4.2 | 0
19 | CN1CCc2c(c3ccccc3n2Cc2ccc(C(=O)NO)cc2)C1 [Tubastatin A] | 0.5 | 0 | 0.5 | 0 | 0 | 0.85 | 1.4 | 3.4 | 0.8 | 1.4 | 2.9 | 0 | 2.8 | 1.3 | 1.7 | 1.3
20 | COC(=O)c1ccc2c(c1)[nH]c1ncnc(NCCCN3CCCCC3)c12 [UM729] | 0 | 0.2 | 0 | 0.5 | 0 | 0.6 | 0.1 | 2.2 | 0 | 3.5 | 4.7 | 0 | 3.1 | 0.1 | 1.1 | 1.8
21 | COc1cc2c(NC3CCN(C(C)C)CC3)nc(C3CCCCC3)nc2cc1OCCCN1CCCC1 [UNC0638] | 1.9 | 4.7 | 0 | 2.1 | 0.2 | 7.6 | 4.3 | 5.4 | 2 | 0.5 | 5.5 | 1.7 | 0 | 3.1 | 3.5 | 6.5
22 | COc1cc2c(NC3CCN(C(C)C)CC3)nc(N3CCC(F)(F)CC3)nc2cc1OCCCN1CCCC1 [UNC0642] | 0.2 | 2.1 | 0 | 0 | 0 | 4.3 | 1.2 | 2.3 | 0.1 | 1.1 | 4 | 0.2 | 0 | 0.1 | 2.3 | 0.7
23 | O=C(c1ccc(C(=O)N2CCC(N3CCCC3)CC2)c(Nc2ccccc2)c1)N1CCC(N2CCCC2)CC1 [UNC1215] | 0 | 0 | 0 | 0 | 0 | 0 | 0 | 0 | 0 | 0.3 | 0 | 0 | 0 | 0 | 0 | 0

Reference: the supplement of paper PMC9938120
